What was measured:
[1] = molecular target: T1, AR (AR-full length) in LNCaP cells (Homo sapiens, UniProt P10275, T878A); experiment: LNCaP Androgen Receptor Imaging Assay (immunofluorescence of endogenous nuclear AR); assay type: cell-based; conditions: 24 h incubation; for DC50: concentration giving 50% of maximum degradation of AR per curve fit, single experiment or average of two or more; for Dmax: LNCaP; for Dmax / LNCaP AR Degradation Dmax: maximum degradation observed, normalized as % of positive control (prior art AR PROTAC at 3 μM)
T1 construct: the prostate cancer cell line LNCaP (expressing AR-full length); endogenous in cells; host or cells: LNCaP
Method: This cell-based imaging assay uses immuno-fluorescence to measure endogenous nuclear AR staining in the prostate cancer cell line LNCaP (expressing AR-full length). The purpose of the assay is to identify compounds that regulate AR protein level according to the protocol laid out in the steps below.
(§1) All work was performed in a sterile tissue culture hood up to the point of cell fixation. LNCaP cells were cultured at 6-8×10^6 per T175 flask and split every 3-4 days. Medium: RPMI (R7638, VWR Sigma) containing 10% FCS and 1% glutamine. Cells were plated in black wall transparent bottom plates at a density of 12,000 cells (Cedex™ Cell counter, Beckmann & Coulter), 40 μL per well, using a Multidrop (ThermoFisher).
(§2) Cells were dosed with test compound diluted in DMSO using an Echo 555/655™ (Labcyte) and the final concentration of DMSO in the well was 0.3%. A neutral control (DMSO) and a positive AR degrader control at 3 μM (a prior art AR PROTAC) were included. The Echo uses acoustic technology to perform direct microplate-to-microplate transfers of DMSO compound solutions to assay plates. The system can be programmed to transfer volumes as low as 2.5 nL in multiple increments between microplates and in so doing generates a serial dilution of compound in the assay plate which is then back-filled to normalise the DMSO concentration across the dilution range. Compounds were dispensed as a 12 point dose response with indicated concentrations. The plates were incubated at 37° C./5% CO2 for 24 h and then fixed and stained as below. 40 μL of 8% paraformaldehyde solution (v/v) in phosphate buffered saline (PBS) was added on top of the media already in the well using a Multidrop to fix plates giving a final concentration of 4% PFA (v/v) for 20-30 minutes (keep in fume hood to minimise PFA exposure). After 20-30 mins, the plates were washed with 3×PBS using a BioTek washer in a fume hood. A shake out of remaining volume in the well was performed to ensure best removal of remaining PBS. At this plates could be stored in PBS after washing for at least 3 days at 4° C., if so, PBS was removed by the BioTek before continuing with the next step.
(§3) The cells were incubated with a Mouse monoclonal Anti-AR antibody AR441 (DAKO M3562) (1:1000), diluted in modified blocking buffer (PBS+1% BSA+0.1% TritonX); 15 μL/well for 2 h at RT. The plates were then washed with 3×PBS using a BioTek washer. A shake out of remaining volume in the well was performed to ensure best removal of remaining PBS. Cells were then incubated with Goat anti-mouse secondary antibody 488 (Invitrogen A11001) (1:500) and nuclear stain, DRAQ5 (Abcam Ab108410) (1:2000) diluted in modified blocking buffer for 45 mins at room temperature 15 μL/well. Plates are then washed with 3×PBS using a BioTek washer, without final aspiration, and sealed with black plate seals. Plates could be stored after staining for three days at 4° C. before read if required.
(§4) Plates are read using a Cellomics Cellinsight to measure the Androgen Receptor level in each well. The data is exported into Genedata to perform curve fitting analysis. All data are normalized as % of positive control and the BellFit method automatically determines the correct fit method based on the presence of hook effect, choosing the BellFit when there is a hook and HillFit when there is no hook. Down-regulation of AR is expressed as a DC50 value and determined by calculation of the concentration of compound that is required to give 50% of maximum degradation of AR as per the curve fit for that compound. The maximum degradation observed for each compound is expressed as Dmax. The AR degradation data for compounds is shown in the table below and may be a result from a single experiment or an average of two or more experiments.

[2] = molecular target: T2, AR (L702H) in LNCaP cells (Homo sapiens, UniProt P10275, L702H/T878A); experiment: LNCaP Androgen Receptor L702H Imaging Assay (LNCaP cells engineered by CRISPR/Cas9); assay type: cell-based; conditions: LNCaP cells with AR L702H mutation, 24 h incubation; for DC50: concentration giving 50% of maximum degradation of AR (L702H) per curve fit; for Dmax: LNCaP; for Dmax / LNCaP AR (L702H) Degradation Dmax: maximum degradation observed, normalized as % of positive control
T2 construct: engineered to introduce the mutation L702H into the AR gene using CRISPR/Cas9; endogenous in cells; host or cells: LNCaP cells edited by CRISPR/Cas9 at the AR gene
Method: as §1, §2, §3, §4
At this stage, anti-androgen therapy is largely ineffective due to AR amplification, overexpression or point mutation. One of the point mutations observed in patient populations is L702H in the AR Ligand Binding Domain. LNCAP cells have been engineered to introduce the mutation L702H into the AR gene using CRISPR/Cas9. The previously described imaging-based AR assay will monitor nuclear AR (L702H) levels in these cells to identify compounds that regulate AR (L702H). […]

T2 sequence (P10275 whole entry L702H/T878A): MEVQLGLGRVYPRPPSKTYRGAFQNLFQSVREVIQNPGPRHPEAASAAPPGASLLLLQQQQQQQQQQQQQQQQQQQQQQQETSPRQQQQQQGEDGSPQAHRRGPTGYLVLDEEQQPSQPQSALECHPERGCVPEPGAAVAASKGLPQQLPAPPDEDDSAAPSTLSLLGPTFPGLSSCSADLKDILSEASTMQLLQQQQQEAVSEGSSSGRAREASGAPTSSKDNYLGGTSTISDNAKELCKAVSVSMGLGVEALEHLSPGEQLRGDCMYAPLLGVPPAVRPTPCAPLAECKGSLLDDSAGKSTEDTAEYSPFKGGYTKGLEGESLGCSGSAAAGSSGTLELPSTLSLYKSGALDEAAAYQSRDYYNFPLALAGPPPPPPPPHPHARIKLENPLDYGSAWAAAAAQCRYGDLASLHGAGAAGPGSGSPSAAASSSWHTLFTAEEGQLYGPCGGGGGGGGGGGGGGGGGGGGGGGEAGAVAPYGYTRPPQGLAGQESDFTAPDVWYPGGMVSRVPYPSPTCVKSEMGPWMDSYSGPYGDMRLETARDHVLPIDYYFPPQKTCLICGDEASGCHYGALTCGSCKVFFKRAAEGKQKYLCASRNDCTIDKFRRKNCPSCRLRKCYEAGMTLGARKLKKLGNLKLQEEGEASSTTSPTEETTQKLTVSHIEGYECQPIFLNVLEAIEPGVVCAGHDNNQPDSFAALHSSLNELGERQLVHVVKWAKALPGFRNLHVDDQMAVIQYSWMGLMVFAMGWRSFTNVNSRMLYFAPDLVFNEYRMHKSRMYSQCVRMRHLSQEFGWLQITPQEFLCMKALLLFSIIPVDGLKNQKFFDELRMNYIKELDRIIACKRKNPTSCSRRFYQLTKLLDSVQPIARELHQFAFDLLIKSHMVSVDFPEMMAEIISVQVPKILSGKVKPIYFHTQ
T2 sequence (Q96SW2 whole entry partner): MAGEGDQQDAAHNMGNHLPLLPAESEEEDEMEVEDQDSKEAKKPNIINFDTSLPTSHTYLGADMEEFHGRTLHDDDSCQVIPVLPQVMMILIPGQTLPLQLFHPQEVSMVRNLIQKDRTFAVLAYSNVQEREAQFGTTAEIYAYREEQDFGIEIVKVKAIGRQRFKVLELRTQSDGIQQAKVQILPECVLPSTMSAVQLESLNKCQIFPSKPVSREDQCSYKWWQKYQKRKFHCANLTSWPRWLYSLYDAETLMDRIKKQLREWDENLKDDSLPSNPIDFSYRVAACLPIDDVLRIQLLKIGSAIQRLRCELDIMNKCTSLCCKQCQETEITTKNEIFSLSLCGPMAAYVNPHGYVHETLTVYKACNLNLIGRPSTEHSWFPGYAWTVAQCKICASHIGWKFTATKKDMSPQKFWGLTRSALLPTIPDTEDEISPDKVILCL
T1 sequence (P10275 whole entry T878A): as the sequence (P10275 whole entry L702H/T878A) above, with H702L counted along it
T1 sequence (Q96SW2 whole entry partner): as the sequence (Q96SW2 whole entry partner) above

SMILES | DC50 [1] | Dmax [1] | DC50 [2] | Dmax [2] | LNCaP AR Degradation Dmax [1] | LNCaP AR (L702H) Degradation Dmax [2]
N#Cc1c[nH]c2c(C3CCCN(c4ccc(N5CCC(CN6CCN(c7ccc8c(c7)CN(C7CCC(=O)NC7=O)C8=O)CC6)CC5)cc4)C3)ccc(Cl)c12 (single isomer, unassigned) [Example 93, 4-Chloro-7-[(3R*)-1-{4-[4-({4-[2-(2,6-dioxopiperidin-3-yl)-1-oxo-2,3-dihydro-1H-isoindol-5-yl]piperazin-1-yl}methyl)piperidin-1-yl]phenyl}piperidin-3-yl]-1H-indole-3-carbonitrile] | 20 nM | 87% | 11 nM | 95% |  | 
N#Cc1c[nH]c2c(C3CCCN(c4ccc(C5CCN(CC6CCN(c7ccc8c(c7)CN(C7CCC(=O)NC7=O)C8=O)CC6)CC5)cc4)C3)ccc(Cl)c12 (single isomer, unassigned) [Example 96, 4-Chloro-7-[(3R*)-1-{4-[1-({1-[2-(2,6-dioxopiperidin-3-yl)-1-oxo-2,3-dihydro-1H-isoindol-5-yl]piperidin-4-yl}methyl)piperidin-4-yl]phenyl}piperidin-3-yl]-1H-indole-3-carbonitrile] | 31 nM | 54% | 12 nM | 95% |  | 
N#Cc1c[nH]c2c(C3CCCN(c4ccc(C5CCN(CC6CCN(c7ccc8c(c7)CN(C7CCC(=O)NC7=O)C8=O)CC6)CC5)cc4)C3)ccc(Cl)c12 (single isomer, unassigned) [Example 97, 4-Chloro-7-[(3S*)-1-{4-[1-({1-[2-(2,6-dioxopiperidin-3-yl)-1-oxo-2,3-dihydro-1H-isoindol-5-yl]piperidin-4-yl}methyl)piperidin-4-yl]phenyl}piperidin-3-yl]-1H-indole-3-carbonitrile] | > 3000 nM |  | > 3000 nM |  |  | 
COc1nc(N2CCC(CN3CCC(c4ccc(N5CCCC(c6ccc(Cl)c7c(C#N)c[nH]c67)C5)cc4)CC3)CC2)cc2c1C(=O)N(C1CCC(=O)NC1=O)C2 (single isomer, unassigned) [Example 98, 4-Chloro-7-[(3R*)-1-{4-[1-({1-[2-(2,6-dioxopiperidin-3-yl)-4-methoxy-3-oxo-2,3-dihydro-1H-pyrrolo[3,4-c]pyridin-6-yl]piperidin-4-yl}methyl)piperidin-4-yl]phenyl}piperidin-3-yl]-1H-indole-3-carbonitrile] | 90 nM | 40% | 15 nM | 83% |  | 
N#Cc1c[nH]c2c(N3CCCC(c4ccc(N5CCC(CN6CCC(n7ccc8c(N9CCC(=O)NC9=O)cccc87)CC6)CC5)nc4)C3)ccc(Cl)c12 (single isomer, unassigned) [Example 115, 4-Chloro-7-[(3S*)-3-{6-[4-({4-[4-(2,4-dioxo-1,3-diazinan-1-yl)-1H-indol-1-yl]piperidin-1-yl}methyl)piperidin-1-yl]pyridin-3-yl}piperidin-1-yl]-1H-indole-3-carbonitrile] | 14 nM | 99% | 13 nM | 102% |  | 
N#Cc1c[nH]c2c(N3CCCC(c4ccc(N5CCC(CN6CCC(n7ccc8c(N9CCC(=O)NC9=O)cccc87)CC6)CC5)nc4)C3)ccc(Cl)c12 (single isomer, unassigned) [Example 116, 4-Chloro-7-[(3R*)-3-{6-[4-({4-[4-(2,4-dioxo-1,3-diazinan-1-yl)-1H-indol-1-yl]piperidin-1-yl}methyl)piperidin-1-yl]pyridin-3-yl}piperidin-1-yl]-1H-indole-3-carbonitrile] | 11 nM |  | 23 nM |  | 103% | 97%
N#Cc1c[nH]c2c(N3CCOC(c4ccc(N5CCC(CN6CCC(n7ccc8c(N9CCC(=O)NC9=O)cccc87)CC6)CC5)cc4)C3)ccc(Cl)c12 (single isomer, unassigned) [Example 117, 4-Chloro-7-[(2S*)-2-{4-[4-({4-[4-(2,4-dioxo-1,3-diazinan-1-yl)-1H-indol-1-yl]piperidin-1-yl}methyl)piperidin-1-yl]phenyl}morpholin-4-yl]-1H-indole-3-carbonitrile] | 17 nM | 89% | 363 nM | 84% |  | 
N#Cc1c[nH]c2c(N3CCOC(c4ccc(N5CCC(CN6CCC(n7ccc8c(N9CCC(=O)NC9=O)cccc87)CC6)CC5)cc4)C3)ccc(Cl)c12 (single isomer, unassigned) [Example 118, 4-Chloro-7-[(2R*)-2-{4-[4-({4-[4-(2,4-dioxo-1,3-diazinan-1-yl)-1H-indol-1-yl]piperidin-1-yl}methyl)piperidin-1-yl]phenyl}morpholin-4-yl]-1H-indole-3-carbonitrile] | 24 nM |  | 2300 nM |  | 92% | 100%
N#Cc1n[nH]c2c(N3CCOC(c4ccc(N5CCC(CN6CCC(n7ccc8c(N9CCC(=O)NC9=O)cccc87)CC6)CC5)cc4)C3)ccc(Cl)c12 (single isomer, unassigned) [Example 119, 4-Chloro-7-[(2S*)-2-{4-[4-({4-[4-(2,4-dioxo-1,3-diazinan-1-yl)-1H-indol-1-yl]piperidin-1-yl}methyl)piperidin-1-yl]phenyl}morpholin-4-yl]-1H-indazole-3-carbonitrile] | 6 nM | 99% | 14 nM | 103% |  | 
N#Cc1n[nH]c2c(N3CCOC(c4ccc(N5CCC(CN6CCC(n7ccc8c(N9CCC(=O)NC9=O)cccc87)CC6)CC5)cc4)C3)ccc(Cl)c12 (single isomer, unassigned) [Example 120, 4-Chloro-7-[(2R*)-2-{4-[4-({4-[4-(2,4-dioxo-1,3-diazinan-1-yl)-1H-indol-1-yl]piperidin-1-yl}methyl)piperidin-1-yl]phenyl}morpholin-4-yl]-1H-indazole-3-carbonitrile] | 13 nM |  | 40 nM |  | 101% | 90%
N#Cc1c[nH]c2c(N3CCCC(c4ccc(N5CCC(CN6CCC(n7ccc8c(N9CCC(=O)NC9=O)cccc87)CC6)CC5)nn4)C3)ccc(Cl)c12 (single isomer, unassigned) [Example 121, 4-Chloro-7-[(3R*)-3-{6-[4-({4-[4-(2,4-dioxo-1,3-diazinan-1-yl)-1H-indol-1-yl]piperidin-1-yl}methyl)piperidin-1-yl]pyridazin-3-yl}piperidin-1-yl]-1H-indole-3-carbonitrile] | 18 nM | 81% | 3100 nM |  |  | 98%

— patent US20260274832A1, “COMPOUNDS AND THEIR USE IN TREATING CANCER” (ASTRAZENECA AB, priority 2023, published 2026)
